Where two headings read alike, the source gives them in different places.
Molecular target: T1, EHMT1 (Homo sapiens, UniProt Q9H9B1)
T1 sequence (Q9H9B1 1-1298): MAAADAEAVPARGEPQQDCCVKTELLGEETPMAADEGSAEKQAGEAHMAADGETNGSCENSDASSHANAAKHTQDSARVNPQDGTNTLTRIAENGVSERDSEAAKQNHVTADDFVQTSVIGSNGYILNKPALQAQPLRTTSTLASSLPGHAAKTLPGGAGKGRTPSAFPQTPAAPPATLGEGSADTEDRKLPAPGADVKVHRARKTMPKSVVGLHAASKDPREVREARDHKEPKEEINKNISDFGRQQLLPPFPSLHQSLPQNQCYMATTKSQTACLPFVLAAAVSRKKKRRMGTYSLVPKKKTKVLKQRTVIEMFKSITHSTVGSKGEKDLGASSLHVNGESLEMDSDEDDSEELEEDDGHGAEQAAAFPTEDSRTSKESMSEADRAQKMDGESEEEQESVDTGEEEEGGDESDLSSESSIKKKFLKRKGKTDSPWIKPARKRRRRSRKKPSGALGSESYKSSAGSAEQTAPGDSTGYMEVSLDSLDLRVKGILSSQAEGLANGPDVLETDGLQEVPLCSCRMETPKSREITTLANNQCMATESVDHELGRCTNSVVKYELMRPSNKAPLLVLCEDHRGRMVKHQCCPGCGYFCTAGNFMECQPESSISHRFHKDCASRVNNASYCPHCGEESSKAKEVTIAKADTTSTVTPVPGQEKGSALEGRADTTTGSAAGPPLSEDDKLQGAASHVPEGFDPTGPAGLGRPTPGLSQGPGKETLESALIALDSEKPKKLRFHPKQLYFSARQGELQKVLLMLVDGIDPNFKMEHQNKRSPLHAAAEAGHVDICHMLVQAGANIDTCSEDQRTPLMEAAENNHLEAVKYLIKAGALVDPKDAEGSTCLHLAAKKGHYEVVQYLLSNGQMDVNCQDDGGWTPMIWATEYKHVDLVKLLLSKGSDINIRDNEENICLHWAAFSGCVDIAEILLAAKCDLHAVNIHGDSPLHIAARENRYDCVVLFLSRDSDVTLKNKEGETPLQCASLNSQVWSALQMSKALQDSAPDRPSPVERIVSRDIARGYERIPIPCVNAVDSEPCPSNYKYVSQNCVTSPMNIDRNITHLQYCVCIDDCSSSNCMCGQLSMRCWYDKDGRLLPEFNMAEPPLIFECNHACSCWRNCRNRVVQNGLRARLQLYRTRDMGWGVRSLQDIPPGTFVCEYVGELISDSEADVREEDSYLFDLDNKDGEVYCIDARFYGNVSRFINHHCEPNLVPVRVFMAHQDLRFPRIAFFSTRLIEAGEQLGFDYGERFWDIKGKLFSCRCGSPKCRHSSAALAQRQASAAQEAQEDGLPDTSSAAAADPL
Experiment: EHMT1 enzyme assay on peptide substrate (EHMT1 PEP)
Type: biochemical

[1] = Table III, read-out: EHMT1 PEP (IC50 μM)
[2] = Table VI, read-out: EHMT1 PEP IC50

Row | IC50 [1] [µM] | IC50 [2] [µM] | Structure (SMILES)
1 | > 10 | – | COc1ccc(NCCCN2CCCC2)cc1Nc1nccc(NCC2CCOCC2)n1 [Compound 352]
2 | 0.1 to 1 | – | CNc1ccnc(Nc2ccc(OC)c(OCCCN3CC[C@@H](F)C3)c2)n1 [Compound 353]
3 | 0.1 to 1 | – | CNc1ccnc(Nc2ccc(OC)c(OCCCN3CC(F)C3)c2)n1 [Compound 354]
4 | – | 1 to 10 | CNc1cc2nccn2c(Nc2cc(OCCCN3CCCC3)c(OC)cn2)n1 [Compound 611]
5 | – | < 0.1 | CCN1CC(COc2cc(Nc3nc(C)cc4[nH]ccc34)ncc2OC)C1 [Compound 613]
6 | – | 0.1 to 1 | CNc1cc(C)nc(Nc2cc(OCCCN3CCCC3)c3nc(C)cn3c2)n1 [Compound 616]
7 | – | 0.1 to 1 | CNc1cc(C)nc(Nc2cc(OCCCN3CCCC3)c3nccn3c2)n1 [Compound 618]
8 | – | < 0.1 | COc1cc2c(C3CCN(C)CC3)cc(C#N)nc2cc1OCCCN1CCCC1 [Compound 790]
9 | – | > 10 | CNc1cc(C)nc(Nc2cc(OCCCN3CCCC3)c3oncc3c2)n1 [Compound 793]
10 | – | > 10 | COc1ccc(Nc2nn(C)c3cnccc23)cc1OCCCN1CCCC1 [Compound 794]
11 | – | > 10 | COc1cnc(Nc2nn(C)c3cnccc23)cc1OCCCN1CCCC1 [Compound 795]
12 | – | > 10 | COc1ccc(Nc2cc(C)[nH]n2)cc1OCCCN1CCCC1 [Compound 796]
13 | – | > 10 | COc1ccc(Nc2cc(C)n(C)n2)cc1OCCCN1CCCC1 [Compound 797]
14 | – | < 0.1 | CNc1cc(C)nc(Nc2cnc(OC)c(OC[C@@H]3CCN(C4CCC4)C3)c2)n1 [Compound 798]
15 | – | < 0.1 | COc1ccc(Nc2nc(C)cc(NC(C)C)n2)cc1OC[C@@H]1CCNC1 [Compound 800]
16 | – | > 10 | COc1cnc(Nc2nccc3nccn23)cc1OC[C@@H]1CCNC1 [Compound 801]
17 | – | < 0.1 | CNc1cc(C2CCOCC2)c2cc(OC)c(OC[C@@H]3CCNC3)cc2n1 [Compound 802]
18 | – | < 0.1 | CNc1cc(C2CCOCC2)c2cc(OC)c(OC[C@@H]3CCN(C)C3)cc2n1 [Compound 803]
19 | – | 1 to 10 | COc1cc(NC2CCOCC2)ncc1OCC1CCNC1 (centres unmarked) [Compound 806]
20 | – | 1 to 10 | COc1cc(N(C)C2CCOCC2)ncc1OCC1CCNC1 (centres unmarked) [Compound 808]
21 | – | < 0.1 | CNc1cc(C2CCN(C(C)=O)CC2)c2cc(OC)c(OCCCN3CCCC3)cc2n1 [Compound 809]

Continued, molecule first:

Row | Structure (SMILES) | IC50 [1] [µM] | IC50 [2] [µM]
22 | CNc1cc(C)nc(Nc2ccc(OC)c(O[C@H]3C[C@H](N(C)C)C3)c2)n1 (single isomer, unassigned) [Compound 329, N^2-(3-((1r,3r)-3-(dimethylamino)cyclobutoxy)-4-methoxyphenyl)-N^4,6-dimethylpyrimidine-2,4-diamine] | 1 to 10 | –
23 | COc1ccc(Nc2ccc3cnn(C)c3n2)cc1OCCCN1CCCC1 [Compound 257, N-(4-methoxy-3-(3-(pyrrolidin-1-yl)propoxy)phenyl)-1-methyl-1H-pyrazolo[3,4-b]pyridin-6-amine] | > 10 | –
24 | COc1ccc(Nc2cc3c(cn2)ncn3C)cc1OCCCN1CCCC1 [Compound 258, N-(4-methoxy-3-(3-(pyrrolidin-1-yl)propoxy)phenyl)-1-methyl-1H-imidazo[4,5-c]pyridin-6-amine] | > 10 | –
25 | COc1ccc(Nc2nccc(NCC3CCOCC3)n2)cc1OC1CCC2(CC1)CCN(C)C2 (centres unmarked) [Compound 259, N^2-(4-methoxy-3-((2-methyl-2-azaspiro[4.5]decan-8-yl)oxy)phenyl)-N^4-((tetrahydro-2H-pyran-4-yl)methyl)pyrimidine-2,4-diamine] | > 10 | –
26 | COc1ccc(Nc2nccc(NCC3CCOCC3)n2)cc1OC1CCC2(CC1)CN(C)C2 [Compound 260, N^2-(4-methoxy-3-((2-methyl-2-azaspiro[3.5]nonan-7-yl)oxy)phenyl)-N^4-((tetrahydro-2H-pyran-4-yl)methyl)pyrimidine-2,4-diamine] | > 10 | –
27 | CNc1cnnc(Nc2cc(OCCCN3CCCC3)c(OC)cn2)c1 [Compound 322, N^3-(5-methoxy-4-(3-(pyrrolidin-1-yl)propoxy)pyridin-2-yl)-N^5-methylpyridazine-3,5-diamine] | < 0.1 | –
28 | CNc1cc(Nc2cc(OCCCN3CCCC3)c(OC)cn2)cnn1 [Compound 323, N^5-(5-methoxy-4-(3-(pyrrolidin-1-yl)propoxy)pyridin-2-yl)-N^3-methylpyridazine-3,5-diamine] | > 10 | –
29 | CNc1cc(Nc2cc(OCCCN3CCCC3)c(OC)cn2)ncn1 [Compound 324, N^4-(5-methoxy-4-(3-(pyrrolidin-1-yl)propoxy)pyridin-2-yl)-N^6-methylpyrimidine-4,6-diamine] | 1 to 10 | –
30 | CNc1cc(Nc2cc(OCCCN3CCCC3)c(OC)cn2)nc(C)n1 [Compound 325, N^4-(5-methoxy-4-(3-(pyrrolidin-1-yl)propoxy)pyridin-2-yl)-N^6,2-dimethylpyrimidine-4,6-diamine] | 1 to 10 | –
31 | COc1cnc(Nc2nc(C)nc3[nH]ccc23)cc1OCCCN1CCCC1 [Compound 326, N-(5-methoxy-4-(3-(pyrrolidin-1-yl)propoxy)pyridin-2-yl)-2-methyl-7H-pyrrolo[2,3-d]pyrimidin-4-amine] | 0.1 to 1 | –
32 | CNc1nc(Nc2ccc(OC)c(OCCCN3CCCC3)c2)nc2c1CCC2 [Compound 328, N^2-(4-methoxy-3-(3-(pyrrolidin-1-yl)propoxy)phenyl)-N^4-methyl-6,7-dihydro-5H-cyclopenta[d]pyrimidine-2,4-diamine] | 0.1 to 1 | –
33 | CNc1cc(C)nc(Nc2ccc(OC)c(OC[C@H]3C[C@H](N(C)C)C3)c2)n1 [Compound 330] | 1 to 10 | –
34 | CNc1cc(C)nc(Nc2ccc(OC)c(O[C@H]3C[C@H](CN(C)C)C3)c2)n1 [Compound 331, N^2-(3-((1r,3r)-3-((dimethylamino)methyl)cyclobutoxy)-4-methoxyphenyl)-N^4,6-dimethylpyrimidine-2,4-diamine] | > 10 | –
35 | CNc1cc(C)nc(Nc2cnc(OC)c(OCCCN3CCCC3)c2)n1 [Compound 332, N^2-(6-methoxy-5-(3-(pyrrolidin-1-yl)propoxy)pyridin-3-yl)-N^4,6-dimethylpyrimidine-2,4-diamine] | < 0.1 | –
36 | CCn1nc(Nc2nccc3[nH]ccc23)cc1COCCN1CCCC1 [Compound 333] | 1 to 10 | –
37 | COc1cnc(Nc2ccnc3[nH]ccc23)cc1OCCCN1CCCC1 [Compound 335, N-(5-methoxy-4-(3-(pyrrolidin-1-yl)propoxy)pyridine-2-yl)-1H-pyrrolo[2,3-b]pyridin-4-amine] | 0.1 to 1 | –

Row | Structure (SMILES) | IC50 [1] [µM] | IC50 [2] [µM]
38 | COc1cnc(Nc2cc(C)nc3[nH]ccc23)cc1OCCCN1CCCC1 [Compound 336, N-(5-methoxy-4-(3-(pyrrolidin-1-yl)propoxy)pyridin-2-yl)-6-methyl-1H-pyrrolo[2,3-b]pyridin-4-amine] | 0.1 to 1 | –
39 | COc1ccc(Nc2nc(C)c(F)c(NC(C)C)n2)cc1OCCCN1CCCC1 [Compound 337] | 0.1 to 1 | –
40 | COc1ccc(Nc2nccc(-n3nc(C)cc3C)n2)cc1OCCCN1CCCC1 [Compound 338] | > 10 | –
41 | CNCc1cnc(Nc2ccc(OC)c(OCCCN3CCCC3)c2)nc1 [Compound 339] | > 10 | –
42 | COc1ccc(Nc2ccnc(NCC3CCN(C(C)=O)CC3)n2)cc1OCCCN1CCCC1 [Compound 340] | 0.1 to 1 | –
43 | COc1ccc(Nc2ccc3cnn(C)c3c2)cc1OCCCN1CCCC1 [Compound 341] | > 10 | –
44 | COc1ccc(Nc2ccc3ncn(C)c3n2)cc1OCCCN1CCCC1 [Compound 342] | > 10 | –
45 | COc1ccc(Nc2ncc3ncn(C)c3n2)cc1OCCCN1CCCC1 [Compound 343] | > 10 | –
46 | COc1ccc(Nc2cccc3ncnn23)cc1OCCCN1CCCC1 [Compound 344] | > 10 | –
47 | COc1ccc(Nc2ccc3nn(C)cc3c2)cc1OCCCN1CCCC1 [Compound 345] | > 10 | –
48 | COc1ccc(Nc2cccc3cn(C)nc23)cc1OCCCN1CCCC1 [Compound 346] | > 10 | –
49 | COc1ccc(Nc2ccc3ncc(C)n3n2)cc1OCCCN1CCCC1 [Compound 347] | 1 to 10 | –
50 | COc1ccc(Nc2nccc(-c3cnn(C)c3)n2)cc1OCCCN1CCCC1 [Compound 348] | > 10 | –
51 | COc1ccc(Nc2nccc(Nc3cccc(F)c3)n2)cc1OCCCN1CCCC1 [Compound 349] | 1 to 10 | –
52 | COc1ccc(Nc2nccc(NCC3CCOCC3)n2)cc1NCCCN1CCCC1 [Compound 350] | 0.1 to 1 | –
53 | COc1ccc(OCCCN2CCCC2)cc1Nc1nccc(NCC2CCOCC2)n1 [Compound 351] | > 10 | –

Reference: patent US20210198277A1, “AMINE-SUBSTITUTED ARYL OR HETEROARYL COMPOUNDS” (Epizyme, Inc., priority 2016, published 2021)
